Columns and labels:
[1] = tested on: normal human umbilical vein endothelial cells (HUVEC); assay: Nitrite (NO2) concentration in HUVEC culture supernatant by HPLC (NO production); format: cell-based; details: 48-hour culture
Protocol: A normal human umbilical vein endothelial cells (HUVEC) line available from Clonetics (SanDiego, Calif., USA) was used with EGM-2 Bullet Kit medium containing 2% FBS (Takara Bio Inc.). The cells were cultured at 37° C. in a 5% CO2 incubator, and used for experiments after 4 to 6 passages. Citrulline and serine, which were manufactured by Kyowa Hakko Bio, were used.
A cell suspension (0.45 mL) with the adjusted initial cell density to 1×10^5 cells/mL was inoculated in a 24-well plate (IWAKI). After 24-hour culture, the medium was replaced with a medium containing L-citrulline (final concentration 0.3 mM: low-dose citrulline group, or final concentration 3 mM: high-dose citrulline group), L-serine (final concentration 0.3 mM: serine group), or a mixture thereof (citrulline final concentration 0.3 mM and serine final concentration 0.3 mM: low-dose citrulline+serine group, or citrulline final concentration 3 mM and serine final concentration 0.3 mM: high-dose citrulline+serine group). In a control group, a medium to which only a solvent (PBS) was added was used. After 48-hour culture, the culture broth ([…]) was centrifuged at 12,000 rpm for 10 minutes, and the concentration of nitrite (NO2), which is a stable NO metabolite, in the culture supernatant was determined by HPLC (ENO-20, EICOM).

[2] = tested on: mice in which chronic rheumatoid arthritis was induced; details: oral administration, mice with induced chronic rheumatoid arthritis; cited from earlier work
[3] = tested on: normal rats and spontaneously hypertensive rats (SHR); details: intravenous acute administration, transient; cited from earlier work

SMILES | Effect on NO production alone ([1]; citrulline 0.3 mM alone (low-dose citrulline group)) | Effect on NO production alone ([1]; citrulline 3 mM alone (high-dose citrulline group)) | Arthritis score [2] | Average blood pressure [3] | Peripheral vascular resistance [3]
NC(=O)NCCC[C@H](N)C(=O)O [citrulline, L-citrulline] | does not affect NO production alone | NO production was enhanced | – | – | –
N[C@@H](CO)C(=O)O [serine, L-serine] | – | – | ameliorating the arthritis score | decreased | decreased in a transient manner

Reference: patent US9833426B2, “Agent for preventing deterioration in vascular endothelial function or improving vascular endothelial function” (KYOWA HAKKO BIO CO., LTD., priority 2012, dated 2017)
